The values below come from PMC10418970, “Effective and Selective Ru(II)-Arene Complexes Containing 4,4′-Substituted 2,2′ Bipyridine Ligands Targeting Human Urinary Bladder Cancer Cells” (International Journal of Molecular Sciences, 2023).

One data set has as its system HepG-2-hepatic cells. Briefly: MTT cell proliferation assay, HepG-2. The data set is classed as cell-based, human. The settings on record: 24 h incubation.
For a further data set, the system named is EB-CTDNA adduct. Briefly: EB/CTDNA fluorescence competition (quenching). The class given is binding, calf. Conditions: [DNA] 5 μM, [EB] 5 μM, complex 0-50 μM. The method, then:
To learn more about the binding properties of 1–7 with CTDNA, the fluorescence competition technique is employed. EB is an orange fluorescent dye and an intercalating agent for DNA.
3.2 Fluorescence titration experiments
The displacement of the EB-bound was obtained by
treated with a saturating ethidium bromide 5 µM.
Figure S5. […] [DNA]= 5 µM,
[EB] = 5 µM and [complex] = 0˗50 µM. […]

Another data set relates to T24 cells. As to the kind of experiment: Flow cytometry FITC Annexin V apoptosis assay. The class given is cell-based, human. Conditions: at IC50 concentration (1: […]; 2: 14.5 μM). The method, then: Figure S10. Cytotoxic effects of complexes ( 1-7) against (A) EA.hy-926, (B) HepG-2, (C) T24, (D) normal kidney (Vero) cells
and (E) MCF-10a-breast epithelial . Data expressed in SD±mean with three replicates.
After 24 h incubation, control and treated cells were stained with acriddine
orange (AO)/ethidium bromide (EB) and incubated for 10 min. The images were taken immediately under fluorescent
8. Flow cytometry studies
The cell apoptotic rate was determined by flow cytometry analysis with the fluorescein isothiocyanate (FITC)
Annexin V apoptosis detection kit (Multi Sciences, China). T24 cancer cells were collected by trypsinization, washed
twice and resuspended in […], 1 × binding buffer with […] of FITC Annexin V and […] of PI. After incubation for
15 min, the samples were subjected to analysis by flow cytometry. The results were analysed with the BD FACS Calibur™
(1 picture or pasted object on this page, not shown here)

Data set [1] can be described thus: Shake-flask water-octanol Log p. Conditions: n-octanol / water containing 0.45% sodium chloride, 0.5 mM, 37 °C.
Procedure: The complex was dissolved in a mixture with equal volumes of pre-saturated n-octanol and water to a final concentration of 0.5 mM. The mixture was shaken at 250 rpm for 24 h at 37 °C and then centrifuged at 3000 rpm for 10 min. The complex concentration (C) in each phase was measured by UV-Vis spectroscopy and used to calculate Log p, according to the formula Log p = log (Coctanol/Cwater).
The test system of a further data set is Vero cells. As to the kind of experiment: MTT cell proliferation assay, Vero. Conditions: 24 h incubation; healthy cells. The class given is cell-based, African green monkey.
The test system of another data set is T24-bladder cells. As to the kind of experiment: MTT cell proliferation assay, T24. The data set is classed as cell-based, human. The settings on record: 24 h incubation.
The subject of data set [2] is EA.hy926 endothelial cells. Briefly: MTT cell proliferation assay, EA.hy926. The settings on record: 24 h incubation. The data set is classed as cell-based, human.
The target of data set [3] is T1, Bovine serum albumin (BSA) (Bos taurus, UniProt P02769).
T1 construct: purchased Sigma Aldrich
As to the kind of experiment: BSA fluorescence titration (Stern-Volmer, Scatchard). Conditions: for number of binding sites (n) on BSA: Scatchard equation; for BSA quenching constant Kq: [BSA] 1 μM, complex 0-20 μM, phosphate buffer pH 7.2. The data set is classed as binding. From the text:
To explore the mode of complex-protein interaction, we monitor the BSA fluorescence quenching at […] by addition of increasing amounts of 1–7 to a fixed quantity of BSA (Figure S7). […] The molar absorptivity of tyrosine and phenylalanine are 10- and 200-fold weaker than tryptophan, respectively, and are ignored in the modelling. […] The complex binding-induced fluorescence quenching is described by the linear Stern–Volmer relationship (Figure 12A) to obtain the quenching constant Kq (see SI for details). Further, the equilibrium binding constant (Kb) of the complex to BSA and the number of binding sites (n) are obtained by casting the fluorescence intensity in the absence of quencher (F^0) and quencher concentration [Q] dependent F into the Scatchard equation [35]: log [(F^0− F)/F] = log Kb + n log[Q], as shown in Figure 12B.
4 Interaction of complexes with Bovine serum albumin
4.1 Fluorescence titration
The interaction of complexes with BSA was studied using fluorescence spectra, recorded at a fixed excitation wavelength corresponding to BSA at 280 nm and monitoring the emission at 335 nm. Stock solution of BSA were prepared by dissolving commercial BSA in 50mM phosphate buffer (pH 7.2) and stored at 4 οC for further use.
Concentrated stock solution of each test compound were prepared by dissolving it in DMF-phosphate buffer (5:95) and diluted with phosphate buffer to get required concentrations. For the fluorescence measurements, 2.5 mL solution of BSA was titrated with successive additions of […] stock solution of complexes (0-20 µM) […]
Figure S7. Fluorescence quenching curves of BSA in the absence and presence of complexes 1-7. […]

In data set [4] the test system is MCF-10a-breast epithelial cells. As to the kind of experiment: MTT cell proliferation assay, MCF-10a. The data set is classed as cell-based, human. Conditions: 24 h incubation; healthy cells.

T1 sequence (P02769 25-607): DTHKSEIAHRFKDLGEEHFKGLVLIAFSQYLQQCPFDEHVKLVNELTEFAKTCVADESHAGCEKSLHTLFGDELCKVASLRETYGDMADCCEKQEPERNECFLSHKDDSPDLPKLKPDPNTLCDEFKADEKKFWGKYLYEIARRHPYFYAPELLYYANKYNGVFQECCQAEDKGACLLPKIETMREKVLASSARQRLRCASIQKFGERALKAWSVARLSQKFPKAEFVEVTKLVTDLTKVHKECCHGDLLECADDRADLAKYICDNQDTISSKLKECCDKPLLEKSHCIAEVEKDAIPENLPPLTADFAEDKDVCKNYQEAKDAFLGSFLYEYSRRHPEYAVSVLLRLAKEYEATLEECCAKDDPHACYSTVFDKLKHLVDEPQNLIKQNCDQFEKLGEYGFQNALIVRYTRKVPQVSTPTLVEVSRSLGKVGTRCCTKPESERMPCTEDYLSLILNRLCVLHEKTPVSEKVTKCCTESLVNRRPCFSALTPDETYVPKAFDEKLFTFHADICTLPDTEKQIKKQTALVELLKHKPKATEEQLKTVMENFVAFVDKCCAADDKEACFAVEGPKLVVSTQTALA

Regarding `Cc1ccc(C(C)C)cc1.O=C(O)c1ccnc(-c2cc(C(=O)O)ccn2)c1.[Cl-].[Cl-].[Ru+2]` [Complex 2, [Ru-η^6-p-cymene-(4,4′-(COOH)2bipy)Cl]Cl], the IC50 in the data set on HepG-2-hepatic cells is > 50 µM; with Vero cells, > 50 µM; in the data set with T24-bladder cells, 14.5 µM; in [2], > 50 µM; in data set [4], > 50 µM. For the same compound, in the data set with EB-CTDNA adduct, the “Stern–Volmer quenching constant Kq (EB/CTDNA)” value is given as 4.89 10^4 M^−1. Further, the “apoptotic rate (late + early)” value in the data set on T24 cells stood at 18.24%. The “early apoptosis (Q3)” value with T24 cells came to 10.9%. Also, the “late apoptosis (Q2)” value in the data set on T24 cells is 7.34%. The “Log p Exp. Shake Flask” value in data set [1] is listed as −1.65. Also, the “number of binding sites (n) on BSA” value in [3] stood at 1.2. For the same compound, in [3], the “BSA quenching constant Kq” value is reported as 6.446 × 10^4 10^4 M^−1. Moreover, in the data set “Solubility (observation)”, the solubility entry was “more soluble in high polar organic solvents”.
Regarding `COC(=O)c1ccnc(-c2cc(C(=O)OC)ccn2)c1.[Cl-].[Cl-].[Ru+2].c1ccccc1` [Complex 6, [Ru-η^6-benzene-(4,4′-(COOCH3)2bipy)Cl]Cl], the IC50 in the data set with HepG-2-hepatic cells was 14.5 µM; with Vero cells, 49.2 µM; in the data set on T24-bladder cells, 41.2 µM; in [2] it was 49.3 µM; in data set [4], > 50 µM. Moreover, the “Stern–Volmer quenching constant Kq (EB/CTDNA)” value with EB-CTDNA adduct is 6.69 10^4 M^−1. Also, the “apparent DNA binding constant Kapp” value in the data set with EB-CTDNA adduct was 3.34 10^6 M^−1. Also, the “Log p Exp. Shake Flask” value in [1] is on record as −1.12. Besides, the “number of binding sites (n) on BSA” value in [3] stood at 1.0. In addition, the “BSA quenching constant Kq” value in data set [3] is 3.103 × 10^4 10^4 M^−1.
Turning to `CCOC(=O)c1ccnc(-c2cc(C(=O)OCC)ccn2)c1.[Cl-].[Cl-].[Ru+2].c1ccccc1` [Complex 7, [Ru-η^6-benzene-(4,4′-(COOC2H5)2bipy)Cl]Cl], the IC50 was 41.6 µM with HepG-2-hepatic cells; 33.9 µM in the data set with Vero cells; 19.8 µM with T24-bladder cells; 23.8 µM in data set [2]; > 50 µM in data set [4]. Also, the “Stern–Volmer quenching constant Kq (EB/CTDNA)” value with EB-CTDNA adduct is given as 7.21 10^4 M^−1. The “apparent DNA binding constant Kapp” value in the data set on EB-CTDNA adduct is given as 3.61 10^6 M^−1. The “Log p Exp. Shake Flask” value in [1] is −0.14. Besides, the “number of binding sites (n) on BSA” value in data set [3] stood at 1.1. The “BSA quenching constant Kq” value in data set [3] is on record as 4.779 × 10^4 10^4 M^−1.
As to `CC(C)(C)c1ccnc(-c2cc(C(C)(C)C)ccn2)c1.[Cl-].[Cl-].[Ru+2].c1ccccc1` [Complex 5, [Ru-η^6-benzene-(4,4′-(C4H9)2bipy)Cl]Cl], the “Log p Exp. Shake Flask” value in data set [1] was determined as 2.45.
As to `COC(=O)c1ccnc(-c2cc(C(=O)OC)ccn2)c1.Cc1ccc(C(C)C)cc1.[Cl-].[Cl-].[Ru+2]` [Complex 3, [Ru-η^6-p-cymene-(4,4′-(COOCH3)2bipy)Cl]Cl], the IC50 is > 50 µM in the data set on HepG-2-hepatic cells; 45.6 µM with Vero cells; 21.2 µM in the data set with T24-bladder cells; 30.8 µM in data set [2]; > 50 µM in data set [4]. In the data set with EB-CTDNA adduct, the “Stern–Volmer quenching constant Kq (EB/CTDNA)” value is given as 6.05 10^4 M^−1. Further, the “apparent DNA binding constant Kapp” value in the data set with EB-CTDNA adduct is 3.02 10^6 M^−1. The “number of binding sites (n) on BSA” value in data set [3] was determined as 1.0. Moreover, the “BSA quenching constant Kq” value in data set [3] is reported as 3.622 × 10^4 10^4 M^−1.
Turning to `N.N.[Cl][Pt][Cl]` [Cisplatin, reference compound], the IC50 with HepG-2-hepatic cells is 49.1 µM; in the data set on Vero cells it was 33.7 µM; in the data set with T24-bladder cells, > 50 µM; in data set [2], 22.9 µM; in data set [4], 29.1 µM.
On to `CCOC(=O)c1ccnc(-c2cc(C(=O)OCC)ccn2)c1.Cc1ccc(C(C)C)cc1.[Cl-].[Cl-].[Ru+2]` [Complex 4, [Ru-η^6-p-cymene-(4,4′-(COOC2H5)2bipy)Cl]Cl], for which the IC50 with HepG-2-hepatic cells is 21.1 µM; in the data set with Vero cells it was 31.2 µM; in the data set with T24-bladder cells it was 12.3 µM; in data set [2], 32.3 µM; in [4] it was 40.1 µM. In addition, the “Stern–Volmer quenching constant Kq (EB/CTDNA)” value with EB-CTDNA adduct is recorded as 6.36 10^4 M^−1. For the same compound, the “apparent DNA binding constant Kapp” value in the data set on EB-CTDNA adduct is 3.18 10^6 M^−1. Besides, the “Log p Exp. Shake Flask” value in data set [1] worked out at 0.88. Moreover, in data set [3], the “number of binding sites (n) on BSA” value stood at 1.0. The “BSA quenching constant Kq” value in data set [3] is listed as 3.777 × 10^4 10^4 M^−1.
